# From patent US7781565B2 (priority 2006, dated 2010)
# Entries after “also recorded” stand apart in the source; their conditions may differ.
# Tested on: NCI-60 cell lines
# Format: cell-based, human
Substance,Cell Line the peptide is associated with (peptide recovered from phage library selection on this NCI-60 cell line),Cell Line with which the peptide (and its tripeptide motif) is associated,Cell Line (NCI-60 cell line the peptide is associated with),Cell Line (NCI-60 cell line the peptide and its motif are associated with)
YGLRSLV,BT-549 Breast,–,–,–
TFGKGGL,–,HL-60-Leukemia,–,–
ASLHHRR,–,–,SW620-Colon,–
SVVGVST,–,–,HCT-15 Colon,–
GKALRGV,–,Hop-62-Lung,–,–
HPSMGGR,–,Hop-62-Lung,–,–
LLLRSGG,–,RPMI-8226-Leukemia,–,–
GLRDGVE,A498 Renal,–,–,–
GEALGLG,–,–,–,SK-MEL-2 Melanoma
TAGGAVG,–,–,SW620-Colon,–
LTGGLVF,–,–,–,DU-145 Prostate
GRLDAFG,–,–,–,SK-MEL-5 Melanoma
RRLSYHS,–,–,–,M14 Melanoma; also recorded: OVCAR-3 Ovarian
TWHAGGI,ACHN Renal,–,–,–
LMGRASG,–,SR Leukemia,–,–
SVDRGVI,–,–,LOX-IMVI Melanoma,–
RSSGLGF,–,Hop-62-Lung,–,–
AGGVRDL,–,–,–,PC3 Prostate
RDLAGPS,–,–,–,OVCAR-4 Ovarian
QARGSWL,–,–,–,OVCAR-4 Ovarian
LLSRRVG,–,–,SNB-75 CNS,–
MLGRGSV,SN12C Renal,–,–,–
ISPRSSG,–,–,HCT-15 Colon,–

Substance,Cell Line the peptide is associated with (peptide recovered from phage library selection on this NCI-60 cell line),Cell Line with which the peptide (and its tripeptide motif) is associated,Cell Line (NCI-60 cell line the peptide is associated with),Cell Line (NCI-60 cell line the peptide and its motif are associated with)
VHRVSGG,–,RPMI-8226-Leukemia,–,–
ERARGYP,–,SR Leukemia,–,–
VAVGVRS,HS 578 T Breast,–,–,–
KSGSSVL,–,HL-60-Leukemia,–,–
RVGSVQW,–,–,KM-12C Colon,–
LRGSYVL,–,–,SW620-Colon,–
LVSSGSK,–,HL-60-Leukemia,–,–
RVDRGSL,CAIK-1 Renal,–,–,–
GLVKLRS,MCF-7 Breast,–,–,–
SGGLHEG,–,SR Leukemia,–,–
KMRIAGR,SN12C Renal,–,–,–
RGGSDEA,BT-549 Breast,–,–,–
ARGRGSQ,–,–,–,PC3 Prostate
GVRRSLL,–,–,SNB-75 CNS,–
GQGAASL,–,H522-Lung,–,–
WVGSGSP,–,Hop-92-Lung,–,–
RRLSYRD,–,RPMI-8226-Leukemia,–,–
YLRSAGM,–,–,–,PC3 Prostate
AGGFRFI,–,–,–,SK-MEL-2 Melanoma
SLVSPRT,–,–,–,OVCAR-5 Ovarian
LLRRGIG,–,–,–,SK-MEL-5 Melanoma
GGSRGYR,UO31 Renal,–,–,–
FLLLSHR,SN12C Renal,–,–,–

Substance,Cell Line the peptide is associated with (peptide recovered from phage library selection on this NCI-60 cell line),Cell Line with which the peptide (and its tripeptide motif) is associated,Cell Line (NCI-60 cell line the peptide is associated with),Cell Line (NCI-60 cell line the peptide and its motif are associated with)
GSGQLIP,–,–,–,M14 Melanoma
AGSAFWA,–,–,–,786-0 Renal
RHGPGVL,–,–,–,OVCAR-3 Ovarian
SVSRGRV,A498 Renal,–,–,–
AGSVDLV,–,–,–,SK-MEL-5 Melanoma
GRDWGGL,T-47D Breast,–,–,–
LRVDQLY,–,–,–,UACC62 Melanoma
GSSRTFR,–,A549-Lung,–,–
ELRRLLS,TK-10 Renal,–,–,–
LSVLRVL,–,–,–,IGROV1 Ovarian
HSLVSQP,–,–,SNB-19 CNS; also recorded: SF-539 CNS,–
SVTGSVG,–,–,–,IGROV1 Ovarian
QLVSGSL,–,–,HCT-116 Colon,–
GRGVLAF,–,–,KM-12C Colon,–
GWSASLG,–,–,HCT-116 Colon,–
AMRPGRL,–,RPMI-8226-Leukemia,–,–
VMPGSVV,–,–,SF-295 CNS,–
EVLWGGR,–,–,SF-268 CNS,–
VRRSSKF,BT-549 Breast,–,–,–
SSLLSSL,–,–,–,SK-MEL-2 Melanoma
AGATRGS,HS 578 T Breast,–,–,–
DRGVPGL,–,HL-60-Leukemia,–,–
RIGAGHR,–,–,–,PC3 Prostate

Substance,Cell Line the peptide is associated with (peptide recovered from phage library selection on this NCI-60 cell line),Cell Line with which the peptide (and its tripeptide motif) is associated,Cell Line (NCI-60 cell line the peptide is associated with),Cell Line (NCI-60 cell line the peptide and its motif are associated with)
YTGSSPS,–,–,–,SK-OV-3-3 Ovarian
SLGLGGL,–,–,–,OVCAR-5 Ovarian
GSVSHRR,–,–,–,SK-OV-3-3 Ovarian
GSGYFIT,–,–,–,786-0 Renal
MYLRLLR,–,–,HCT-116 Colon,–
DEGLRSR,–,–,HCT-116 Colon,–
RVMRGSL,MCF-7 Breast,–,–,–
SARQGGR,–,–,–,M14 Melanoma
LIHAGGQ,ACHN Renal,–,–,–
RGVGAKA,NCI/ADR-RES Breast,–,–,–
LGGSRDL,–,–,HCT-116 Colon,–
PVSDGLV,–,–,–,SK-OV-3-3 Ovarian
DVRAVSS,–,EKVX-Lung,–,–
RRGSLMF,–,–,SW620-Colon,–
GVSISDG,SN12C Renal,–,–,–
GFASLLR,–,–,HCT-15 Colon,–
RLLSAFG,–,–,HCT-15 Colon,–
RHFGLRE,–,H522-Lung,–,–
DNDGARG,–,–,COLO-205-Colon,–
QGGRSGV,A498 Renal,–,–,–
TGGSLLG,–,–,–,IGROV1 Ovarian
VPSGSVR,NCI/ADR-RES Breast,–,–,–
VGLGNSA,–,–,–,SK-MEL-2 Melanoma

Substance,Cell Line the peptide is associated with (peptide recovered from phage library selection on this NCI-60 cell line),Cell Line with which the peptide (and its tripeptide motif) is associated,Cell Line (NCI-60 cell line the peptide is associated with),Cell Line (NCI-60 cell line the peptide and its motif are associated with)
RFSSRAV,–,–,–,IGROV1 Ovarian
VRVSGLT,–,–,–,SK-MEL-5 Melanoma
WLLSSEI,–,–,–,PC3 Prostate
WGVLQLE,–,–,LOX-IMVI Melanoma,–
RVSRAGG,–,–,–,PC3 Prostate
VRAAGRV,–,Hop-62-Lung,–,–
RPARGAF,ACHN Renal,–,–,–
AGLPHRF,UO31 Renal,–,–,–
WFKGPSV,–,–,SF-268 CNS,–
NGGRVLS,ACHN Renal,–,–,–
RIFHGAV,–,–,SNB-19 CNS; also recorded: SF-539 CNS,–
SPGVSGR,–,–,SW620-Colon,–
FPGSAGS,ACHN Renal,–,–,–
PGAVLTV,–,–,COLO-205-Colon,–
EMGSSRG,–,–,HT-29 Colon,–
VGVMGGR,CAIK-1 Renal,–,–,–
AGWRLSQ,CAIK-1 Renal,–,–,–
APLRSGR,–,EKVX-Lung,–,–
YVRIGRV,–,–,HCT-15 Colon,–
AAGAGWR,–,–,–,OVCAR-4 Ovarian
GASLTGD,–,H460-Lung,–,–
RAAVGAR,–,H23-Lung,–,–
GYSRASD,–,–,HT-29 Colon,–

Substance,Cell Line the peptide is associated with (peptide recovered from phage library selection on this NCI-60 cell line),Cell Line with which the peptide (and its tripeptide motif) is associated,Cell Line (NCI-60 cell line the peptide is associated with),Cell Line (NCI-60 cell line the peptide and its motif are associated with)
PRGSLFA,UO31 Renal,–,–,–
RGLQGGR,–,–,–,SK-MEL-2 Melanoma
RGLRSVN,–,H226-Lung,–,–
VTGGRVD,–,A549-Lung,–,–
ERASQTA,–,K-562-Leukemia,–,–
AYYSLRS,–,–,KM-12C Colon,–
SLLRRLE,TK-10 Renal,–,–,–
AGRPDGV,–,–,–,DU-145 Prostate
VMGGPSL,–,Hop-62-Lung,–,–
GVGGLSS,HS 578 T Breast,–,–,–
IGGREIT,–,H23-Lung,–,–
SSGPRSS,–,Hop-62-Lung,–,–
RGGSPPV,RXF393 Renal,–,–,–
FVGRVGE,A498 Renal,–,–,–
GPSSAVE,–,–,–,OVCAR-5 Ovarian
AARGVMV,–,–,–,SK-MEL-2 Melanoma
GGMNGRL,–,–,HT-29 Colon,–
GSGRALA,–,–,–,SK-MEL-2 Melanoma
